Entries after “also recorded” stand apart in the source; their conditions may differ.
Tests used:
ACE2 = format: cell-based, human
TMPRSS2 = format: cell-based, human; details: Fig.4E
primary NHBE [1] = format: cell-based, human
SARS-CoV-2 = format: cell-based
primary NHBE [2] = details: uninfected primary NHBE, different doses titrated, Fig.1C

Which “ACE2 gene expression (microarray, confirmed by qPCR)” value (ACE2) does the source give for `C[C@]12CCC(=O)C=C1CC[C@@H]1[C@@H]2[C@@H](O)C[C@@]2(C)[C@H]1CC[C@]2(O)C(=O)CO` [hydrocortisone] here?
The value was “upregulation of ACE2 and TMPRSS2 on the transcriptional level of uninfected cells”.

What about the “ACE2 gene expression (qPCR)” value (ACE2) of the same molecule?
The value was “did not change”.

And the “TMPRSS2 gene expression (microarray, confirmed by qPCR)” value (TMPRSS2; 10 µM hydrocortisone, uninfected cells)?
The value was “upregulation of ACE2 and TMPRSS2 on the transcriptional level of uninfected cells”.

And the “TMPRSS2 gene expression (qPCR)” value (TMPRSS2; 24h pre-treatment 10 µM hydrocortisone, uninfected and virus-infected NHBE, with or without IFN-γ)?
Its value is “still enhanced TMPRSS2 expression in both, uninfected and virus-infected NHBE”.

And the “genes that may support the cytokine storm (gene expression)” value (primary NHBE [1])?
Its value is “not significantly influenced”.

What about the “type I interferons IFNB1 and IFNE and type III interferons such as IFNL3 (gene expression)” value (primary NHBE [1]) of the same molecule?
The value was “even slightly enhanced”.

And the APOBEC3A gene expression (primary NHBE [1]; Fig.4A)?
The APOBEC3A gene expression was “even increased”.

What about the “known and potential virus entry receptors (gene expression)” value (primary NHBE [1]; Fig.4C) of the same molecule?
The value was “rather enhances receptors, like TMPRSS2, 11B and 11E proteins”.

What about the “genes upregulated by SARS-CoV-2-infection, but downregulated by drug” value (primary NHBE [1]; Venn diagram, Fig.3E) of the same molecule?
Its value is 300 genes.

What about the “genes reduced by SARS-CoV-2-infection, but increased by drug” value (primary NHBE [1]; Venn diagram, Fig.7C) of the same molecule?
The value was 198 genes.

And the “global gene expression changes” value (primary NHBE [1]; icatibant 1 µM or hydrocortisone 10 µM, volcano plots, Fig.3D)?
Its value is “almost balanced relationship between suppression and induction of gene expression”.

And the “antiviral epithelial response (gene expression)” value (primary NHBE [1]; in general, Fig.4A)?
Its value is “changes of the antiviral epithelial response were not induced”.

What about the “antiviral response genes significantly downregulated” value (primary NHBE [1]; over all conditions, Fig.8A) of the same molecule?
Its value is “significantly reduced DNAJC3, CREBZF, GPAM, BNIP3L and FAM111A”.

And the “transcripts regulated by both, hydrocortisone and icatibant” value (primary NHBE [1]; overlap of the two drugs, majority long non-coding RNAs, Fig.3E)?
Its value is 86 transcripts.

What about the “virus titers / infectious viral particles in supernatant (plaque forming units)” value (SARS-CoV-2) of the same molecule?
The value was “no adverse effect on the virus titers; also recorded: did not reduce virus titers”.

How did the “potential cytotoxicity (LDH)” value (primary NHBE [2]) turn out when `NC(N)=NCCC[C@@H](N)C(=O)N[C@@H](CCCN=C(N)N)C(=O)N1CCC[C@H]1C(=O)N1C[C@H](O)C[C@H]1C(=O)NCC(=O)N[C@@H](Cc1cccs1)C(=O)N[C@@H](CO)C(=O)N1Cc2ccccc2C[C@@H]1C(=O)N1[C@H](C(=O)N[C@@H](CCCN=C(N)N)C(=O)O)C[C@@H]2CCCC[C@@H]21` [icatibant] was run?
Its value is “no toxic effects in NHBE cell cultures, but even exhibits a cell-protecting effect”.

What about the “infection-mediated cytotoxicity (LDH), rescue” value (SARS-CoV-2 infected NHBE; 1 µM icatibant added 6h post-inoculation, Fig.5F) of the same molecule?
The value was “significantly reduced”.

And the “infection-mediated cytotoxicity (LDH)” value (SARS-CoV-2 infected NHBE; 24h pre-treatment 1 µM icatibant, then 24h SARS-CoV-2 inoculation, n=12, Fig.5E)?
Its value is “significantly reduced”.

— patent EP3909646A1 (priority 2020, dated 2021)
